Reference: patent US10131606B2, “Tetrarylmethane ethers” (Rohm and Haas Company, priority 2014, dated 2018)

| melting point | SMILES |
| --- | --- |
| 103 to 105 °C | CCCCCCCOc1ccc(C(c2ccccc2)(c2ccccc2)c2ccc(OCCCCCCC)cc2)cc1 [BHeptTPM, Bis(4-(heptyloxy)phenyl)diphenylmethane] |
| 110 to 113 °C | CCCCCOc1ccc(C(c2ccccc2)(c2ccccc2)c2ccc(OCCCCC)cc2)cc1 [BPentTPM, Bis(4-(pentyloxy)phenyl)diphenylmethane] |
| 120 to 122 °C | CCCCCCOc1ccc(C(c2ccccc2)(c2ccccc2)c2ccc(OCCCCCC)cc2)cc1 [BHexTPM] |
| 84.5 to 86.5 °C | CCCCCCCCOc1ccc(C(c2ccccc2)(c2ccccc2)c2ccc(OCCCCCCCC)cc2)cc1 [BOctTPM, Bis(4-(octyloxy)phenyl)diphenylmethane] |
